Reference: patent US8106052B2, “Luminescence-based methods and probes for measuring cytochrome P450 activity” (Promega Corporation, priority 2002, dated 2012)

Legend:
[1] = system: thermostable luciferase; test: Stabilization of luminescent signal using luciferase inhibitors; conditions: 100 micromolar inhibitor; CYP1A1 with Luciferin chloroethyl ether; read for 1 hour
Method: FIG. 17. Stabilization of luminescent signals using luciferase inhibitors. […] Luminescence was read immediately and at subsequent 5 minute intervals for 1 hour.
(AMBT) or 2-(4-aminophenyl)-6-methylbenzothiazole (APMBT), were evaluated to determine their effect on stabilizing a luminescent signal.
Luminescence was read immediately and at subsequent 5 minute intervals for 1 hour.

[2] = target: T1, CYP1A1 (Homo sapiens, UniProt P04798); test: Two-step luminescent CYP450 inhibition assay; type: biochemical; design: purchased GenTest (Woburn, Mass.); host or cells: Sf9 insect cells; conditions: substrate Luc CEE; 50 microliter reaction, 1 picomole CYP450; read-out: IC50 of known CYP450 substrate against CYP1A1/Luc CEE
T1 sequence (P04798 1-512): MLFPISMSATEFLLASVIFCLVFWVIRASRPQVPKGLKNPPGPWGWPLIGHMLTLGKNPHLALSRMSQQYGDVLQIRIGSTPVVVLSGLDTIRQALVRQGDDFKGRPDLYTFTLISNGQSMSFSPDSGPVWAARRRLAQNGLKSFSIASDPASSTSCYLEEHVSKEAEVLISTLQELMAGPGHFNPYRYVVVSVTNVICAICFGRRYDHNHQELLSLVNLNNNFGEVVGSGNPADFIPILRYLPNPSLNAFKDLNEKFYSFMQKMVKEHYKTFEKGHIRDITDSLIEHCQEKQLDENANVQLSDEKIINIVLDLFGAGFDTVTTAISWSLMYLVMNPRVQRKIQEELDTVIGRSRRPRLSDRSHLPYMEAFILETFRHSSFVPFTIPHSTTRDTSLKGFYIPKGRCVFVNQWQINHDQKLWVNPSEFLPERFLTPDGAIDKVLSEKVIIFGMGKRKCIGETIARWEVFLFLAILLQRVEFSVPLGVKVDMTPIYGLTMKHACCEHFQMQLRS
Method: After an initial incubation period at 37° C.
Luciferin derivatives as substrates for luminescent CYP450 assays would be useful as probes for detecting other CYP450 substrates. Because two distinct substrates for the same CYP450 isoform will likely compete for the active site, it is possible to characterize known substrates and to identify novel substrates by observing their capacity to inhibit the luminescent reactions with luciferin derivatives. […] The drugs inhibited the reactions in a dose-dependent manner, thus verifying the expectation that CYP450 substrates can be detected by these luminescent assays (see table below). IC50s were calculated by non-linear regression analysis with the program GraphPad PRISM™ (San Diego, Calif.). The reactions were performed as described in Example 2 except the first step (CYP450 reaction) was in a 50 microliter reaction volume with 1 picomole of CYP450. In the second step a 50 microliter luciferase reaction was added to give final concentrations of 50 micrograms/mL recombinant, mutant of firefly luciferase from Photuris pennsylvanica from Promega (17), 200 micromolar ATP, 0.1% tergitol (v/v), 4.0 mM MgSO4 and 100 mM Tricine pH 8.4. FIGS. 11(a)-(c) illustrate the actual inhibition curves.

| Compound | Effect on luminescent signal in a luminescent CYP450 assay [1] | IC50 [2] |
| --- | --- | --- |
| Cc1ccc2nc(-c3ccc(N)cc3)sc2c1 [APMBT, 2-(4-aminophenyl)-6-methylbenzothiazole] | stabilizes the luminescent signal | – |
| CCOc1ccc(NC(C)=O)cc1 [Phenacetin, phenacetin] | – | 21 µM |
